Data from patent publication EP3473709B1, “DNA VECTOR CONTAINING A GENE ENCODING AN EQUINE BUTYRYLCHOLINESTERASE, FOR TRANSFORMATION AND INTEGRATION INTO LEISHMANIA TARENTOLAE CHROMOSOME” (priority 2017, dated 2019).

Assays:
[1] = target: recombinant equine BChE (butyrylcholinesterase), truncated version devoid of the tetramerization domain, GA-BChE-His, Seq.2, expressed in Leishmania tarentolae (Equus caballus, UniProt Q9N1N9); experiment: Ellman's method enzymatic activity test (hydrolysis of S-butyrylthiocholine iodide, DTNB, absorbance at 412 nm)
CCCC(=O)SCC[N+](C)(C)C = experiment: purified protein, by the assay type; settings: pH 7.4; 25.0 °C

Compound	BChE activity in the presence of different concentrations of methylene blue [1]	Km (CCCC(=O)SCC[N+](C)(C)C)
CN(C)c1ccc2nc3ccc(=[N+](C)C)cc-3sc2c1 [methylene blue]	inhibited	–
recombinant equine BChE (butyrylcholinesterase), truncated version devoid of the tetramerization domain, GA-BChE-His, Seq.2, expressed in Leishmania tarentolae T7-TR (Equus caballus)	–	20 µM
